Values after ≈ are worked out from the molar mass of the structure shown. Where two headings read alike, the source gives them in different places.
Tested on: pathogenic bacteria
Assay: MIC by microdilution broth method (NCCLS M7-A4), in vitro antibacterial activity
Format: cell-based
Method in brief: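 MIC read after 35 °C incubation for 16–20 h relative to drug-free growth wells. Cation-adjusted Mueller-Hinton broth with two-fold compound dilutions, organisms at roughly 5×10^4 CFU/well final. Method follows NCCLS document M7-A4.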

[1] = Staphylococcus aureus, Organism A: Staphylococcus aureus OC4172, read-out: MIC
[2] = Streptococcus pneumoniae, ATCC49619, Organism E: Streptococcus pneumoniae ATCC 49619, read-out: MIC
[3] = Streptococcus pneumoniae, Organism C: fluoroquinolone-resistant clinical isolate of Streptococcus pneumoniae (QRDR amino acid substitutions)
[4] = Streptococcus pneumoniae, Organism D: fluoroquinolone-resistant clinical isolate of Streptococcus pneumoniae (QRDR amino acid substitutions)
[5] = Streptococcus pneumoniae, Organism B: fluoroquinolone-resistant clinical isolate of Streptococcus pneumoniae (QRDR amino acid substitutions)

Row | SMILES | MIC [1] [µg/mL] | MIC [2] [µg/mL] | MIC [3] [µg/mL] | MIC [4] [µg/mL] | MIC [5] [µg/mL]
1 | C[C@H]1COc2c(N3CCOC/C(=C(\F)CN)C3)c(F)cc3c(=O)c(C(=O)O)cn1c23 [Compound 493, 9-[(Z)-6-(2-Amino-1-fluoro-ethylidene)-[1,4]oxazepan-4-yl]-8-fluoro-(3S)-3-methyl-6-oxo-2,3-dihydro-6H-1-oxa-3a-aza-phenalene-5-carboxylic Acid] | 0.06 (≈ 0.142 µM) | 0.5 (≈ 1.19 µM) | > 16 | 1 (≈ 2.37 µM) | –
2 | C[C@H]1COc2c(N3CCOC/C(=C(/F)CN)C3)c(F)cc3c(=O)c(C(=O)O)cn1c23 [Compound 494, 9-[(E)-6-(2-Amino-1-fluoro-ethylidene)-[1,4]oxazepan-4-yl]-8-fluoro-(3S)-3-methyl-6-oxo-2,3-dihydro-6H-1-oxa-3a-aza-phenalene-5-carboxylic Acid] | 1 (≈ 2.37 µM) | 8 (≈ 19 µM) | > 16 | > 16 | –
3 | NC/C(F)=C1\CCCN(c2nc3c(cc2F)c(=O)c(C(=O)O)cn3C2CC2)CC1 [Compound 495, (Z)-7-[4-(2-Amino-1-fluoro-ethylidene)-azepan-1-yl]-1-cyclopropyl-6-fluoro-4-oxo-1,4-dihydro-[1,8]naphthyridine-3-carboxylic acid] | 0.25 (≈ 0.618 µM) | 1 (≈ 2.47 µM) | 2 (≈ 4.95 µM) | – | –
4 | NC/C(F)=C1/CCCN(c2nc3c(cc2F)c(=O)c(C(=O)O)cn3C2CC2)CC1 [Compound 496, (E)-7-[4-(2-Amino-1-fluoro-ethylidene)-azepan-1-yl]-1-cyclopropyl-6-fluoro-4-oxo-1,4-dihydro-[1,8]naphthyridine-3-carboxylic acid] | 0.25 (≈ 0.618 µM) | 1 (≈ 2.47 µM) | 0.25 (≈ 0.618 µM) | 16 (≈ 39.6 µM) | –
5 | NC/C(F)=C1/COCCN(c2nc3c(cc2F)c(=O)c(C(=O)O)cn3C2CC2)C1 [Compound 497, (Z)-7-[6-(2-Amino-1-fluoro-ethylidene)-[1,4]oxazepan-4-yl]-1-cyclopropyl-6-fluoro-4-oxo-1,4-dihydro-[1,8]naphthyridine-3-carboxylic acid] | 1 (≈ 2.46 µM) | 4 (≈ 9.84 µM) | > 16 | > 16 | > 1
6 | NC/C(F)=C1\COCCN(c2nc3c(cc2F)c(=O)c(C(=O)O)cn3C2CC2)C1 [Compound 498, (E)-7-[6-(2-Amino-1-fluoro-ethylidene)-[1,4]oxazepan-4-yl]-1-cyclopropyl-6-fluoro-4-oxo-1,4-dihydro-[1,8]naphthyridine-3-carboxylic acid] | 1 (≈ 2.46 µM) | 16 (≈ 39.4 µM) | > 16 | > 16 | 4 (≈ 9.84 µM)
7 | C[C@H]1CN(c2nc3c(cc2F)c(=O)c(C(=O)O)cn3C2CC2)C/C(=C(/F)CN)CO1 [Compound 499, (Z)-7-[6-(2-Amino-1-fluoro-ethylidene)-(2S)-2-methyl-[1,4]oxazepan-4-yl]-1-cyclopropyl-6-fluoro-4-oxo-1,4-dihydro-[1,8]naphthyridine-3-carboxylic acid] | 8 (≈ 19 µM) | > 16 | > 16 | > 16 | > 16
8 | C[C@@H]1CN(c2nc3c(cc2F)c(=O)c(C(=O)O)cn3C2CC2)C/C(=C(/F)CN)CO1 [Compound 500, (Z)-7-[6-(2-Amino-1-fluoro-ethylidene)-(2R)-2-methyl-[1,4]oxazepan-4-yl]-1-cyclopropyl-6-fluoro-4-oxo-1,4-dihydro-[1,8]naphthyridine-3-carboxylic acid] | 2 (≈ 4.76 µM) | 16 (≈ 38.1 µM) | > 16 | > 16 | > 16
9 | NC/C(F)=C1\CCCN(c2cc3c(cc2F)c(=O)c(C(=O)O)cn3C2CC2)CC1 [Compound 501, (Z)-7-[4-(2-Amino-1-fluoro-ethylidene)-azepan-1-yl]-1-cyclopropyl-6-fluoro-4-oxo-1,4-dihydro-quinoline-3-carboxylic acid] | 0.25 (≈ 0.62 µM) | 2 (≈ 4.96 µM) | 8 (≈ 19.8 µM) | 16 (≈ 39.7 µM) | –
10 | NC/C(F)=C1/CCCN(c2cc3c(cc2F)c(=O)c(C(=O)O)cn3C2CC2)CC1 [Compound 502, (E)-7-[4-(2-Amino-1-fluoro-ethylidene)-azepan-1-yl]-1-cyclopropyl-6-fluoro-4-oxo-1,4-dihydro-quinoline-3-carboxylic acid] | 0.5 (≈ 1.24 µM) | 4 (≈ 9.92 µM) | 16 (≈ 39.7 µM) | > 16 | 16 (≈ 39.7 µM)
11 | NC/C(F)=C1/COCCN(c2cc3c(cc2F)c(=O)c(C(=O)O)cn3C2CC2)C1 [Compound 503, (Z)-7-[6-(2-Amino-1-fluoro-ethylidene)-[1,4]oxazepan-4-yl]-1-cyclopropyl-6-fluoro-4-oxo-1,4-dihydro-quinoline-3-carboxylic acid] | 4 (≈ 9.87 µM) | 16 (≈ 39.5 µM) | > 16 | > 16 | –
12 | NC/C(F)=C1\COCCN(c2cc3c(cc2F)c(=O)c(C(=O)O)cn3C2CC2)C1 [Compound 504, (E)-7-[6-(2-Amino-1-fluoro-ethylidene)-[1,4]oxazepan-4-yl]-1-cyclopropyl-6-fluoro-4-oxo-1,4-dihydro-quinoline-3-carboxylic acid] | 2 (≈ 4.93 µM) | 16 (≈ 39.5 µM) | 8 (≈ 19.7 µM) | 4 (≈ 9.87 µM) | –
13 | COc1c(N2CCC/C(=C(/F)CN)CC2)c(F)cc2c(=O)c(C(=O)O)cn(C3CC3)c12 [Compound 505, (Z)-7-[4-(2-Amino-1-fluoro-ethylidene)-azepan-1-yl]-1-cyclopropyl-6-fluoro-8-methoxy-4-oxo-1,4-dihydro-quinoline-3-carboxylic acid] | 0.12 (≈ 0.277 µM) | 0.25 (≈ 0.577 µM) | 4 (≈ 9.23 µM) | 1 (≈ 2.31 µM) | –
14 | COc1c(N2CCC/C(=C(\F)CN)CC2)c(F)cc2c(=O)c(C(=O)O)cn(C3CC3)c12 [Compound 506, (E)-7-[4-(2-Amino-1-fluoro-ethylidene)-azepan-1-yl]-1-cyclopropyl-6-fluoro-8-methoxy-4-oxo-1,4-dihydro-quinoline-3-carboxylic acid] | ≤ 0.015 | 0.25 (≈ 0.577 µM) | 2 (≈ 4.61 µM) | – | –
15 | COc1c(N2CCOC/C(=C(\F)CN)C2)c(F)cc2c(=O)c(C(=O)O)cn(C3CC3)c12 [Compound 507, (Z)-7-[6-(2-Amino-1-fluoro-ethylidene)-[1,4]oxazepan-4-yl]-1-cyclopropyl-6-fluoro-8-methoxy-4-oxo-1,4-dihydro-quinoline-3-carboxylic acid] | 0.06 (≈ 0.138 µM) | 0.25 (≈ 0.574 µM) | 2 (≈ 4.59 µM) | 2 (≈ 4.59 µM) | 0.12 (≈ 0.276 µM)
16 | COc1c(N2CCOC/C(=C(/F)CN)C2)c(F)cc2c(=O)c(C(=O)O)cn(C3CC3)c12 [Compound 508, (E)-7-[6-(2-Amino-1-fluoro-ethylidene)-[1,4]oxazepan-4-yl]-1-cyclopropyl-6-fluoro-8-methoxy-4-oxo-1,4-dihydro-quinoline-3-carboxylic acid] | 0.12 (≈ 0.276 µM) | 1 (≈ 2.3 µM) | > 16 | 8 (≈ 18.4 µM) | ≤ 4
